The numbers were not newly measured in patent publication US20040018954A1, “Composition of menthol and menthyl lactate, its preparation method and its applications as a cooling agent” (priority 2002, published 2004), which cites them from elsewhere.

The conditions of this series: manufacturer's product literature.

Regarding `CC1CCC(C(C)C)C(OC(=O)C(C)O)C1` (centres unmarked) [Frescolat ML, menthyl lactate], the solubility entry is on record as “oil soluble” and the “stable in the pH range” value was 4-8.
